In patent US6022526A, “Use of texaphyrins in detection of melanin and melanin metabolites diagnostic of melanotic melanoma” (Pharmacyclics, Inc., priority 1997, dated 2000):

Key:
[1] = cited from earlier work
[2] = system: B16F10 melanotic melanoma murine cells; assay: Confocal laser scanning (fluorescent) microscopy of lutetium texaphyrin in melanoma cells; format: cell-based; settings: 20 μg/ml LuT2BET, 1 to 24 h
Description: Fluorescent Microscopy of Texaphyrin in Melanoma Cells
The present example provides results from fluorescent microscopy studies using lutetium texaphyrin (LuT2BET) incorporated into melanoma cells.
B16F10 melanotic melanoma murine cells as described in Example 2 were incubated with 20 μg/ml LuT2BET for 1 to 24 h in Waymouth's medium supplemented with 15% fetal bovine serum. The adherent cells were washed thoroughly with PBS (3×) and examined using confocal laser scanning microscopy.
(§1) Melanoma Cells: B16F10 melanotic melanoma murine cells were obtained from the University of California, San Francisco Cell Culture Facility. These cells are highly pigmented and metastatic in vivo. Cells were grown in Iscove's Modified Dulbeccos' Medium (Gibco, Grand Island, N.Y.) supplemented with 10% fetal bovine serum (JRH Biosciences, Woodland, Calif.) and penicillin/streptomycin (Sigma, St. Louis, Mo.).

B16 melanoma = assay: Biodistribution of LuT2BET in B16 melanoma-bearing mice (fluorescence of tissue extracts and plasma); format: in vivo, C57 mice
Description: The present example provides results from a study of the biodistribution of lutetium texaphyrin in melanoma-bearing mice. The biodistribution of LuT2BET was analyzed in C57 mice bearing B16 melanoma at 3 h, 5 h, and 24 h after an intravenous administration of 10 or 20 μmol/kg.
(§2) LuT2BET: The synthesis and chemical analysis of lutetium texaphyrin (LuT2BET, texaphyrin A2 of Tables A and B where M is lutetium) was provided in, for example, U.S. Pat. No. 5,622,946 and in PCT publication W095/10307. LuT2BET was dissolved in 5% mannitol at a 2 mM concentration. LuT2BET absorbs strongly in the far-red region of the electromagnetic spectrum, having a molar extinction coefficient of 23,000 M^-1 cm^-1 in this solution at 732 nm.
as §1
Animals and Tumor Model: Inbred C57BL/6N female mice, (C57 mice) seven to eight weeks of age, were obtained from Simonsen Laboratories Inc. (Gilroy, Calif.). […] Tumor size, i.e., length (l), width (w), and height (h), was measured 3 times a week with a vernier caliper. Tumor volumes were calculated using the formula for a hemiellipsoid (Rockwell and Kallman, 1972): […]
Tissue Extraction Procedure: LuT2BET was administered via tail-vein injection at 10 or 20 μmol/kg. Tissues and plasma were analyzed at 3, 5 or 24 h post administration of the photosensitizer. […] Plasma samples (125 μL) were mixed with 10 mM TRITON X-100® and analyzed for texaphyrin content by fluorescence. […] Samples were then analyzed for lutetium texaphyrin content by fluorescence (excitation=450 nm, emission=700-800 nm). […] Texaphyrin accumulation is expressed as μg drug/g tissue (wet weight) or per mL plasma.
Statistical analysis: Values are expressed as mean±SD. […]

carcinoma SMT-F = assay: Pharmacological data with radiolabeled [^14 C]-LuT2BET in SMT-F bearing mice; format: in vivo; settings: 8.64 μmol/kg
Description: A dose of 8.64 μmol/kg LuT2BET produced drug uptake values of 5.1 μg/g, 4.7 μg/g, and 2.8 μg/g at 3 h, 5 h, and 24 h after injection, yielding tumor:muscle ratios of 8.45:1, 10:1 and 7:1, respectively.

[3] = Absorption of LuT2BET in 5% mannitol; format: physicochemical; settings: 732 nm, 2 mM in 5% mannitol
Description: as §2

## CN1CCc2ccc(O)cc2C(c2ccccc2)C1 (stereo not shown) [BZZ, 2,3,4,5-tetrahydro-3-methyl-5-phenyl-1H-3-benzazepin-7-ol]
[1]; compared with an ideal detecting agent
  tumor specificity: significantly less tumor-specific than an ideal detecting agent
[1]; in vivo
  levels in normal brain (caudate): levels that may be toxic

## CC(=O)[O-].CC(=O)[O-].CCc1c(CC)c2cc3nc(cnc4cc(OCCOCCOCCOC)c(OCCOCCOCCOC)cc4ncc4nc(cc1[n-]2)C(CCCO)=C4C)C(C)=C3CCCO.O.[Lu+3] [LuT2BET]
[2]; listed as Lutetium texaphyrin
  localization at dendritic processes: collect at the dendritic processes
  localization in melanosomes: highly concentrated in the melanosomes of melanoma cells
[2]; listed as lutetium texaphyrin
  localization at dendritic processes: collects at the dendritic processes
  localization in melanosomes: highly concentrated in the melanosomes of melanotic melanoma cells
B16 melanoma; 10 μmol/kg i.v., 5 h
  tumor:muscle ratio (x:1): 15
B16 melanoma; mouse, in vivo
  tumor localizing capacity: good tumor localizing capacity
  uptake into B16 melanoma compared to carcinoma SMT-F: increased uptake
Carcinoma SMT-F; 3 h
  tumor:muscle ratio (x:1): 8.45
Carcinoma SMT-F; 3 h after injection
  drug uptake (tumor): 5.1 µg/g
Carcinoma SMT-F; 5 h
  tumor:muscle ratio (x:1): 10
Carcinoma SMT-F; 5 h after injection
  drug uptake (tumor): 4.7 µg/g
Carcinoma SMT-F; 24 h
  tumor:muscle ratio (x:1): 7
Carcinoma SMT-F; 24 h after injection
  drug uptake (tumor): 2.8 µg/g
[3]
  molar extinction coefficient: 23,000 M^-1 cm^-1
